pEC50, pKi: −log10 of the molar value. Where two headings read alike, the source gives them in different places.
Key:
[1] = system: RS4;11 cells; conditions: Blood, 2008, Vol. 111, 2300-2309; cited from earlier work
[2] = system: RS4;11 cells; assay: RS4;11 cell viability assay (CellTiter Glo); format: cell-based; conditions: 10% human serum, 48 hours
Method in brief: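 Cells seeded at 50,000 per well and exposed to compounds for 48 h at 37 C, 5% CO2 in the presence of 10% human serum. Viability read by CellTiter Glo; EC50 derived from percentage of viable cells versus untreated controls.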

[3] = target: GST-Bcl-2 (Homo sapiens, UniProt P10415); assay: TR-FRET Bcl-2 binding assay (F-Bak peptide probe); conditions: GST-Bcl-2 1 nM, F-Bak peptide probe 100 nM, Tb-anti-GST 1 nM; Wang's equation; '<' = below limit of detection
Method in brief: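 Competitive TR-FRET displacement of F-Bak peptide probe from GST-Bcl-2 detected with Tb-anti-GST antibody; compounds serially diluted in DMSO from 50 μM (2× starting concentration). Mixtures incubated 3 h at room temperature, read at 340 nm excitation with 520 and 495 nm emission. Ki derived by Wang's equation.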

[4] = system: lymphocytes; assay: Lymphocyte reduction in C57BL/6 mice; format: in vivo; conditions: Mus musculus, ip
Method in brief: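 C57Bl/6 mice dosed intraperitoneally at 30 mg/kg daily for four days. Blood cell counts by hematology analyzer 24 hours after first and last doses; exposure (AUC) from samples at 1, 6, 10 and 24 hours after last dose.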

[5] = 30 mg/kg intraperitoneal every day for four days, 24 hours after the last dose, read-out: Lymphocyte reduction % inh. day 4
[6] = 30 mg/kg intraperitoneal every day, 24 hours after the first dose, read-out: Lymphocyte reduction % inh. day 1

GST-Bcl-2, sequence (P10415 whole entry): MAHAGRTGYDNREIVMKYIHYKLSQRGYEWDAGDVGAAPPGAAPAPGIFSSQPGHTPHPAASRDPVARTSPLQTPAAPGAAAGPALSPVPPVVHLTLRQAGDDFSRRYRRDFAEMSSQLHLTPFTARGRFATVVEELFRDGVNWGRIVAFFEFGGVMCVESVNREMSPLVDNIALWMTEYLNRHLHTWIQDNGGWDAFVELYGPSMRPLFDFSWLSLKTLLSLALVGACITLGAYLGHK

In the case of `CN(C)CC[C@H](CSc1ccccc1)Nc1ccc(S(=O)(=O)NC(=O)c2ccc(N3CCN(Cc4ccccc4-c4ccc(Cl)cc4)CC3)cc2)cc1[N+](=O)[O-]` [ABT-737, N-(4-(4-((4′-chloro(1,1′-biphenyl)-2-yl)methyl)piperazin-1-yl)benzoyl)-4-(((1R)-3-(dimethylamino)-1-((phenylsulfanyl)methyl)propyl)amino)-3-nitrobenzenesulfonamide], the “sensitivity of RS4;11 cells to the Bcl-2 family member inhibitor” value [1] is given as “sensitive”.

For `C[C@@H]1COC[C@H](CNc2ccc(S(=O)(=O)NC(=O)c3ccc(N4CCN(CC5=C(c6ccc(Cl)cc6)CC(C)(C)CC5)CC4)cc3Oc3cnc4[nH]ccc4c3)cc2[N+](=O)[O-])O1` [Example 35, 4-(4-{[2-(4-chlorophenyl)-4,4-dimethylcyclohex-1-en-1-yl]methyl}piperazin-1-yl)-N-{[4-({[(2S,6R)-6-methyl-1,4-dioxan-2-yl]methyl}amino)-3-nitrophenyl]sulfonyl}-2-(1H-pyrrolo[2,3-b]pyridin-5-yloxy)benzamide], the pEC50 [2] was 7.92, the pKi [3] was > 10.00 and the inhibition at 30 mg/kg [4, 5] was 49%. It also gave an inhibition at 30 mg/kg [4, 6] of 54%.

For `CC1(C)CCC(CN2CCN(c3ccc(C(=O)NS(=O)(=O)c4ccc(NCC5(CO)CCOCC5)c([N+](=O)[O-])c4)c(Oc4cnc5[nH]ccc5c4)c3)CC2)=C(c2ccc(Cl)cc2)C1` [Example 10, 4-(4-{[2-(4-chlorophenyl)-4,4-dimethylcyclohex-1-en-1-yl]methyl}piperazin-1-yl)-N-{[4-({[4-(hydroxymethyl)tetrahydro-2H-pyran-4-yl]methyl}amino)-3-nitrophenyl]sulfonyl}-2-(1H-pyrrolo[2,3-b]pyridin-5-yloxy)benzamide], the pEC50 [2] was 8.09, the pKi [3] was > 10.00 and the inhibition at 30 mg/kg [4, 5] was < 15%. For the same molecule, the inhibition at 30 mg/kg [4, 6] was < 15%.

With `CC1(C)CCC(CN2CCN(c3ccc(C(=O)NS(=O)(=O)c4ccc(NCC5(C)CCOCC5)c([N+](=O)[O-])c4)c(Oc4cnc5[nH]ccc5c4)c3)CC2)=C(c2ccc(Cl)cc2)C1` [Example 21, 4-(4-{[2-(4-chlorophenyl)-4,4-dimethylcyclohex-1-en-1-yl]methyl}piperazin-1-yl)-N-[(4-{[(4-methyltetrahydro-2H-pyran-4-yl)methyl]amino}-3-nitrophenyl)sulfonyl]-2-(1H-pyrrolo[2,3-b]pyridin-5-yloxy)benzamide] the pEC50 [2] was 7.72, the pKi [3] was > 10.00 and the inhibition at 30 mg/kg [4, 5] was 61%. For the same molecule, the inhibition at 30 mg/kg [4, 6] was 61%.

With `C[C@@H]1CO[C@H](CNc2ccc(S(=O)(=O)NC(=O)c3ccc(N4CCN(CC5=C(c6ccc(Cl)cc6)CC(C)(C)CC5)CC4)cc3Oc3cnc4[nH]ccc4c3)cc2[N+](=O)[O-])CO1` [Example 24, 4-(4-{[2-(4-chlorophenyl)-4,4-dimethylcyclohex-1-en-1-yl]methyl}piperazin-1-yl)-N-{[4-({[(2R,5R)-5-methyl-1,4-dioxan-2-yl]methyl}amino)-3-nitrophenyl]sulfonyl}-2-(1H-pyrrolo[2,3-b]pyridin-5-yloxy)benzamide] the pEC50 [2] was 7.85, the pKi [3] was > 10.00 and the inhibition at 30 mg/kg [4, 5] was 58%. For the same molecule, the inhibition at 30 mg/kg [4, 6] was 48%.

In the case of `CC1(C)CCC(CN2CCN(c3ccc(C(=O)NS(=O)(=O)c4ccc(NCC5(O)CCC(F)(F)CC5)c([N+](=O)[O-])c4)c(Oc4cnc5[nH]ccc5c4)c3)CC2)=C(c2ccc(Cl)cc2)C1` [Example 26, 4-(4-{[2-(4-chlorophenyl)-4,4-dimethylcyclohex-1-en-1-yl]methyl}piperazin-1-yl)-N-[(4-{[(4,4-difluoro-1-hydroxycyclohexyl)methyl]amino}-3-nitrophenyl)sulfonyl]-2-(1H-pyrrolo[2,3-b]pyridin-5-yloxy)benzamide], the pEC50 [2] was 7.36, the pKi [3] was > 10.00 and the inhibition at 30 mg/kg [4, 5] was 23%. The inhibition at 30 mg/kg [4, 6] was 38%.
